Read-outs that look alike come from different tables or passages of the source. Bounds are passed on as bounds.

The target in one experiment is PI3K (Homo sapiens, UniProt P42336). Kind of experiment: Fluorescence polarization assay for PI3K.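 Also: PI3K kinase reaction on PIP2 with ATP, 30-60 min, product sensed by GST-GRP with red probe in fluorescence polarization (mP), controls without enzyme and at zero time.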 The experiment is classed as biochemical. A general note: Fluorescence polarisation rises when a labelled molecule tumbles more slowly, as on binding a larger partner.
The subject of the next experiment is prostate line LNCap. The experiment can be described thus: In vitro cell culture growth assay (MTS), LNCap.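 Also: viable cell density read by absorbance at 490 nm, growth expressed as percent of vehicle-treated cells on the same plate.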 In kind it is cell-based, human. Particulars: LNCap cells, three days after drug treatment.
The subject of the next experiment is breast line MDA468. The experiment can be described thus: In vitro cell culture growth assay (MTS), MDA468. In kind it is cell-based, human. The conditions noted are these: MDA468 cells, three days after drug treatment. The method, boiled down: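 Growth measured as percent of same-plate vehicle control by MTS metabolic dye conversion (A490). Breast MDA468 and prostate LNCap cells, plated a day ahead, were exposed to compounds for 3 days.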

Sequence of PI3K (P42336 whole entry): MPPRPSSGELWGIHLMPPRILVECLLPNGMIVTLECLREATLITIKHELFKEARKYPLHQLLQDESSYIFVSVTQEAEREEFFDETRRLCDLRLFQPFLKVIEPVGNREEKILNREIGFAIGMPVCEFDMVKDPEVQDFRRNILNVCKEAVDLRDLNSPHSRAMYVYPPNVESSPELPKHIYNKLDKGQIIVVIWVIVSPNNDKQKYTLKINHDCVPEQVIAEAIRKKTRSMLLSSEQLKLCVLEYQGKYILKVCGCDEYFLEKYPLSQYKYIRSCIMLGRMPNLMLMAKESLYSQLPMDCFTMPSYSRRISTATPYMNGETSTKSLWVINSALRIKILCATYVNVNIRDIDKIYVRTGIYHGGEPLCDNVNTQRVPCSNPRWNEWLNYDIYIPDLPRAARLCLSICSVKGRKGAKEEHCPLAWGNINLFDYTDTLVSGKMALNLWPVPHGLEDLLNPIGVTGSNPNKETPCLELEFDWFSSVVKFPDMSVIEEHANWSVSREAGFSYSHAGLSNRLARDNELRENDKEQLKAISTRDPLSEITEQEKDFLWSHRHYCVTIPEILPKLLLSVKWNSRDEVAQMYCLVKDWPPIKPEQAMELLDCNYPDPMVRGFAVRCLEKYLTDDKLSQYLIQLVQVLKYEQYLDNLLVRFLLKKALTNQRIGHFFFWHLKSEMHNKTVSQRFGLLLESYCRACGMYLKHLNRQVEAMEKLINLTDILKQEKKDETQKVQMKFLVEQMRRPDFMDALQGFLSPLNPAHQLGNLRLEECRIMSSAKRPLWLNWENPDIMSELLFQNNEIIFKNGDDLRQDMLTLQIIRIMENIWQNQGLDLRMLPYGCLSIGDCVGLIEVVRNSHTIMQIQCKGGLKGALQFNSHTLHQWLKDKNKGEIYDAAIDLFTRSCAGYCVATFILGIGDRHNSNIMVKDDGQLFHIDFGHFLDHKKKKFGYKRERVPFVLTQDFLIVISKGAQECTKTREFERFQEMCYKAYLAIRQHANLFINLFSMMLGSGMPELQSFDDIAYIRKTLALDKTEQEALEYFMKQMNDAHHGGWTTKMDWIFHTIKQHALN
Sequence of PI3K (P27986 whole entry partner): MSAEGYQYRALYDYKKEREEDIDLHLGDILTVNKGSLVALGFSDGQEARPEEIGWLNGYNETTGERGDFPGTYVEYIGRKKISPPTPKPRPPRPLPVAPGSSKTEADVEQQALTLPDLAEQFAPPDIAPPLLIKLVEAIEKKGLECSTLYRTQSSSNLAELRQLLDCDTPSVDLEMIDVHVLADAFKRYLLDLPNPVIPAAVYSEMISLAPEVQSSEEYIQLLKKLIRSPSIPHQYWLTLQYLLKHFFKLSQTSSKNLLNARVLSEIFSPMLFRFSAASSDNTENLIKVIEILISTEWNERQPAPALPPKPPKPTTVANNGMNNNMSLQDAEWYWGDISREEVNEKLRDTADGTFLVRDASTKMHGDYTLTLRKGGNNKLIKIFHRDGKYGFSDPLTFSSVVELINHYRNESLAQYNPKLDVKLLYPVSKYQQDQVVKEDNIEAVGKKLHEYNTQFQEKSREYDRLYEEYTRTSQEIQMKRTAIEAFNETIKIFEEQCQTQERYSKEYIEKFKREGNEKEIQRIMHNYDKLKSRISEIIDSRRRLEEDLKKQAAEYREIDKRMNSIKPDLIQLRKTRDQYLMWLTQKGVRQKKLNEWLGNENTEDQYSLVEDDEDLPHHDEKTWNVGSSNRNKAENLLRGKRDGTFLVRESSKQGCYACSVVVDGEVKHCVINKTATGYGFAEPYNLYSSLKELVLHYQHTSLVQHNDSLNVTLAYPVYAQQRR

A word on the IC50: it is the concentration that inhibits the measured activity by half. On to `COC(=O)Nc1ccc(-c2nc(N3CCOCC3)c3cnn(C4CCN(C(C)=O)CC4)c3n2)cc1` [Compound 809, methyl {4-[1-(1-acetylpiperidin-4-yl)-4-morpholin-4-yl-1H-pyrazolo[3,4-d]pyrimidin-6-yl]phenyl}carbamate], for which the IC50 was found to be 2100 nM on PI3K (PI3Kα, read-out: PI3Kα IC50); 2300 nM with prostate line LNCap (Homo sapiens, LNCaP, 72 h); 4500 nM in the experiment on breast line MDA468 (Homo sapiens, 72 h).
On the same counts, the results for `CNC(=O)Nc1ccc(-c2nc(N3CCOCC3)c3cnn(C4CCN(C(=O)c5ccc(Cl)nc5)CC4)c3n2)cc1` [Example 424, 1-[4-(1-{1-[(6-chloropyridin-3-yl)carbonyl]piperidin-4-yl}-4-morpholin-4-yl-1H-pyrazolo[3,4-d]pyrimidin-6-yl)phenyl]-3-methylurea] are 84 nM, 150 nM and 400 nM.
`COC(=O)Nc1ccc(-c2nc(N3CCOCC3)c3cnn(C4CCN(C(=O)c5ccccc5F)CC4)c3n2)cc1` [Compound 687, methyl (4-{1-[1-(2-fluorobenzoyl)piperidin-4-yl]-4-morpholin-4-yl-1H-pyrazolo[3,4-d]pyrimidin-6-yl}phenyl)carbamate]: the IC50 at PI3K (PI3Kα, read-out: PI3Kα IC50) is 1140 nM; in the experiment with prostate line LNCap it was 250 nM; in the experiment with breast line MDA468, 480 nM.
Take `O=C(Nc1ccc(-c2nc(N3CCOCC3)c3cnn(C4CCN(Cc5cccnc5)CC4)c3n2)cc1)NC1CC1` [Example 405, 1-cyclopropyl-3-(4-{4-morpholin-4-yl-1-[1-(pyridin-3-ylmethyl)piperidin-4-yl]-1H-pyrazolo[3,4-d]pyrimidin-6-yl}phenyl)urea]: the IC50 at PI3K (PI3Kα, read-out: PI3Kα IC50) came out at 438 nM; with prostate line LNCap (Homo sapiens, LNCaP, 72 h), 27 nM; with breast line MDA468 (Homo sapiens, 72 h), 100 nM.
On the same counts, the results for `c1ccc(CN2CCC(n3ncc4c(N5CCOCC5)nc(-c5cc6ccccc6s5)nc43)CC2)cc1` [Example 67] are 2910 nM, 10000 nM and 12000 nM.
On the same counts, the results for `CCOC(=O)N1CCC(n2ncc3c(N4CCOCC4)nc(-c4ccc(NC(=O)OC)cc4)nc32)CC1` [Compound 805, ethyl 4-(6-{4-[(methoxycarbonyl)amino]phenyl}-4-morpholin-4-yl-1H-pyrazolo[3,4-d]pyrimidin-1-yl)piperidine-1-carboxylate] are 2670 nM, 510 nM and 800 nM.
Taken in the same sequence, the figures for `NC(=O)Nc1ccc(-c2nc(N3CCOCC3)c3cnn(C4CCN(C(=O)c5cccnc5)CC4)c3n2)cc1` [Example 301, 1-(4-{4-morpholin-4-yl-1-[1-(pyridin-3-ylcarbonyl)piperidin-4-yl]-1H-pyrazolo[3,4-d]pyrimidin-6-yl}phenyl)urea] were 179 nM, 3000 nM and 1800 nM.
In the case of `CNC(=O)Nc1ccc(-c2nc(N3CCOCC3)c3cnn(C4CCN(Cc5cccc(O)c5)CC4)c3n2)cc1` [Compound 642, 1-(4-{1-[1-(3-hydroxybenzyl)piperidin-4-yl]-4-morpholin-4-yl-1H-pyrazolo[3,4-d]pyrimidin-6-yl}phenyl)-3-methylurea], the IC50 on PI3K (PI3Kα, read-out: PI3Kα IC50) worked out at 28 nM; in the experiment with prostate line LNCap it was 140 nM; in the experiment with breast line MDA468 it was 420 nM.
`O=C(Nc1ccc(-c2nc(N3CCOCC3)c3cnn(C4CCNCC4)c3n2)cc1)Nc1cccnc1` [Compound 779, 1-[4-(4-morpholin-4-yl-1-piperidin-4-yl-1H-pyrazolo[3,4-d]pyrimidin-6-yl)phenyl]-3-pyridin-3-ylurea]: the IC50 at PI3K (PI3Kα, read-out: PI3Kα IC50) was 26 nM; in the experiment on prostate line LNCap (Homo sapiens, LNCaP, 72 h), 2800 nM; in the experiment on breast line MDA468 (Homo sapiens, 72 h) it was 900 nM.
Taken in the same sequence, the figures for `CN(C)c1ccc(CC(=O)Nc2ccc(-c3nc(N4CCOCC4)c4cnn(C5CCCCO5)c4n3)cc2)cc1` (stereo not drawn) [Compound 522, 2-[4-(dimethylamino)phenyl]-N-{4-[4-morpholin-4-yl-1-(tetrahydro-2H-pyran-2-yl)-1H-pyrazolo[3,4-d]pyrimidin-6-yl]phenyl}acetamide] were 6470 nM, 11000 nM and more than 60000 nM.
Turning to `CNC(=O)Nc1ccc(-c2nc(N3CCOCC3)c3cnn(C4CCN(C(=O)OCCOC)CC4)c3n2)cc1` [Compound 800, 2-methoxyethyl 4-(6-{4-[(methylcarbamoyl)amino]phenyl}-4-morpholin-4-yl-1H-pyrazolo[3,4-d]pyrimidin-1-yl)piperidine-1-carboxylate], the IC50 at PI3K (PI3Kα, read-out: PI3Kα IC50) turned out to be 119 nM; in the experiment with prostate line LNCap (Homo sapiens, LNCaP, 72 h), 140 nM; in the experiment on breast line MDA468 (Homo sapiens, 72 h), 260 nM.
For the compound `O=C(Nc1ccc(-c2nc(N3CCOCC3)c3cnn(C4CCN(Cc5cccnc5)CC4)c3n2)cc1)Nc1cccs1` [Compound 648, 1-(4-{4-morpholin-4-yl-1-[1-(pyridin-3-ylmethyl)piperidin-4-yl]-1H-pyrazolo[3,4-d]pyrimidin-6-yl}phenyl)-3-(2-thienyl)urea], the concentration for half-maximal inhibition (IC50) at PI3K (PI3Kα, read-out: PI3Kα IC50) was 8 nM; with prostate line LNCap, less than 27 nM; with breast line MDA468 it was 60 nM.
Turning to `CCCOC(=O)N1CCC(n2ncc3c(N4CCOCC4)nc(-c4ccc(NC(=O)Nc5cccnc5)cc4)nc32)CC1` [Compound 850, propyl 4-(4-morpholin-4-yl-6-{4-[(pyridin-3-ylcarbamoyl)amino]phenyl}-1H-pyrazolo[3,4-d]pyrimidin-1-yl)piperidine-1-carboxylate], the IC50 on PI3K (PI3Kα, read-out: PI3Kα IC50) was 38 nM; with prostate line LNCap (Homo sapiens, LNCaP, 72 h), less than 27 nM; in the experiment with breast line MDA468 (Homo sapiens, 72 h), 120 nM.
Taken in the same sequence, the figures for `O=C(NO)Nc1ccc(-c2nc(N3CCOCC3)c3cnn(-c4ccccc4)c3n2)cc1` [Compound 539, 1-hydroxy-3-[4-(4-morpholin-4-yl-1-phenyl-1H-pyrazolo[3,4-d]pyrimidin-6-yl)phenyl]urea] were 211 nM, 480 nM and 1100 nM.
Regarding `CN(C)c1ccc(CN2CCC(n3ncc4c(N5CCOCC5)nc(-c5ccc6[nH]ccc6c5)nc43)CC2)cc1` [Example 58], the IC50 on PI3K (PI3Kα, read-out: PI3Kα IC50) worked out at 428 nM; with prostate line LNCap (Homo sapiens, LNCaP, 72 h), 1200 nM; in the experiment with breast line MDA468 (Homo sapiens, 72 h), 1500 nM.
Taken in the same sequence, the figures for `C=CCN1CCC(n2ncc3c(N4CCOCC4)nc(-c4ccc(NC(=O)NC)cc4)nc32)CC1` [Compound 799, 1-{4-[1-(1-allylpiperidin-4-yl)-4-morpholin-4-yl-1H-pyrazolo[3,4-d]pyrimidin-6-yl]phenyl}-3-methylurea] were 72 nM, 140 nM and 510 nM.
For `COC(=O)N1CCC(n2ncc3c(N4CCOCC4)nc(-c4ccc(NC(=O)Nc5ccc(F)cc5)cc4)nc32)CC1` [Compound 859, methyl 4-[6-(4-{[(4-fluorophenyl)carbamoyl]amino}phenyl)-4-morpholin-4-yl-1H-pyrazolo[3,4-d]pyrimidin-1-yl]piperidine-1-carboxylate], the IC50 on PI3K (PI3Kα, read-out: PI3Kα IC50) was 28 nM; with prostate line LNCap (Homo sapiens, LNCaP, 72 h) it was 27 nM; in the experiment on breast line MDA468 (Homo sapiens, 72 h), 78 nM.
Regarding `CNC(=O)Nc1ccc(-c2nc(N3CCOCC3)c3cnn(C4CCN(Cc5cncc(Br)c5)CC4)c3n2)cc1` [Compound 638, 1-[4-(1-{1-[(5-bromopyridin-3-yl)methyl]piperidin-4-yl}-4-morpholin-4-yl-1H-pyrazolo[3,4-d]pyrimidin-6-yl)phenyl]-3-methylurea], the concentration for half-maximal inhibition (IC50) at PI3K (PI3Kα, read-out: PI3Kα IC50) was found to be 72 nM; in the experiment with prostate line LNCap, 95 nM; with breast line MDA468, 560 nM.
On to `CNC(=O)Nc1ccc(-c2nc(N3CCOCC3)c3cnn(C4CCN(CC5OCCO5)CC4)c3n2)cc1` [Compound 797, 1-(4-{1-[1-(1,3-dioxolan-2-ylmethyl)piperidin-4-yl]-4-morpholin-4-yl-1H-pyrazolo[3,4-d]pyrimidin-6-yl}phenyl)-3-methylurea], for which the IC50 on PI3K (PI3Kα, read-out: PI3Kα IC50) stood at 155 nM; with prostate line LNCap (Homo sapiens, LNCaP, 72 h), 103 nM; in the experiment with breast line MDA468 (Homo sapiens, 72 h), 300 nM.
Regarding `c1cc2cc(-c3nc(N4CCOCC4)c4cnn(C5CCSCC5)c4n3)ccc2[nH]1` [Compound 171], the IC50 on PI3K (PI3Kα, read-out: PI3Kα IC50) came out at 552 nM; with prostate line LNCap (Homo sapiens, 72 h) it was 730 nM; in the experiment on breast line MDA468 (Homo sapiens, 72 h) it was 2900 nM.
In the case of `CNC(=O)Nc1ccc(-c2nc(N3CCOCC3)c3cnn(C4CCN(C(=O)c5ccc(C#N)cc5)CC4)c3n2)cc1` [Compound 614, 1-(4-{1-[1-(4-cyanobenzoyl)piperidin-4-yl]-4-morpholin-4-yl-1H-pyrazolo[3,4-d]pyrimidin-6-yl}phenyl)-3-methylurea], the IC50 was 89 nM at PI3K (PI3Kα, read-out: PI3Kα IC50); 150 nM with prostate line LNCap (Homo sapiens, LNCaP, 72 h); 220 nM in the experiment with breast line MDA468 (Homo sapiens, 72 h).
On the same counts, the results for `CNC(=O)Nc1ccc(-c2nc(N3CCOCC3)c3cnn(C4CCOCC4)c3n2)cc1` [Example 403, 1-methyl-3-{4-[4-morpholin-4-yl-1-(tetrahydro-2H-pyran-4-yl)-1H-pyrazolo[3,4-d]pyrimidin-6-yl]phenyl}urea] are 45 nM, 103 nM and 400 nM.
With `COC(=O)N1CCC(n2ncc3c(N4CCOCC4)nc(-c4ccc(NC(=O)Oc5ccccc5)cc4)nc32)CC1` [Compound 945, methyl 4-(4-morpholin-4-yl-6-{4-[(phenoxycarbonyl)amino]phenyl}-1H-pyrazolo[3,4-d]pyrimidin-1-yl)piperidine-1-carboxylate], the 50% inhibitory concentration (IC50) was more than 10000 nM at PI3K (PI3Kα IC50, PI3Kα); 5000 nM with prostate line LNCap (Homo sapiens, 72 h); 20000 nM with breast line MDA468 (Homo sapiens, 72 h).
In the case of `O=C(Nc1ccc(-c2nc(N3CCOCC3)c3cnn(C4CCN(CC(F)(F)F)CC4)c3n2)cc1)Nc1cccnc1` [Compound 787, 1-(4-{4-morpholin-4-yl-1-[1-(2,2,2-trifluoroethyl)piperidin-4-yl]-1H-pyrazolo[3,4-d]pyrimidin-6-yl}phenyl)-3-pyridin-3-ylurea], the IC50 came out at 40 nM on PI3K (PI3Kα, read-out: PI3Kα IC50); 27 nM in the experiment with prostate line LNCap (Homo sapiens, LNCaP, 72 h); 140 nM in the experiment on breast line MDA468 (Homo sapiens, 72 h).
Turning to `O=C1CCCN1CCn1ncc2c(N3CCOCC3)nc(-c3ccc4[nH]ccc4c3)nc21` [Compound 161], the IC50 is 3510 nM at PI3K (PI3Kα, read-out: PI3Kα IC50); 14000 nM in the experiment on prostate line LNCap (Homo sapiens, LNCaP, 72 h); 60000 nM with breast line MDA468 (Homo sapiens, 72 h).

These data come from patent publication US20080234262A1 (Wyeth, priority 2007, published 2008).
